Test results as given in PubChem BioAssay AID248 (DTP/NCI, 2004).
Values joined by “and” are separate entries in the source; they are usually repeats but may differ in a detail not shown here. Equal entries are not always repeated. Inconclusive results and toxic doses are left out. No stated cut-off is given here; in the data, active means T/C of 150% or more; inactive means T/C below 125%. Square brackets hold non-standard residues; d marks the D form. Peptide text beside a SMILES is read from it. * marks the point of attachment. ξ: configuration not given here. ξW = NC(Cc1c[nH]c2ccccc12)C(=O)O; Cbz = O=C(OCc1ccccc1)*

Test system: L1210 leukemia ip in BDF1 mice, survival T/C
Test: NCI In Vivo Anticancer Drug Screen. Data for tumor model L1210 Leukemia (intraperitoneal) in B6D2F1 (BDF1) mice
Details: endpoint: mean survival time, higher = longer survival
Outline: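 In this screen, tumor-bearing mice given compound are compared to those given vehicle, and their survival values are reported as a treated-to-control quotient.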

[1] = dose: 100.0 mg/kg/injection, schedule: Q01DX009 (ip), vehicle: Klucel (hydroxypropylcellulose) (HPC)
[2] = dose: 100.0 mg/kg/injection, schedule: Q04DX003 (ip), vehicle: Klucel (hydroxypropylcellulose) (HPC)
[3] = dose: 200.0 mg/kg/injection, schedule: Q01DX009 (ip), vehicle: Klucel (hydroxypropylcellulose) (HPC)
[4] = dose: 200.0 mg/kg/injection, schedule: Q04DX003 (ip), vehicle: Klucel (hydroxypropylcellulose) (HPC)
[5] = dose: 400.0 mg/kg/injection, schedule: Q01DX009 (ip), vehicle: Klucel (hydroxypropylcellulose) (HPC)
[6] = dose: 400.0 mg/kg/injection, schedule: Q04DX003 (ip), vehicle: Klucel (hydroxypropylcellulose) (HPC)
[7] = dose: 100.0 mg/kg/injection, schedule: Q01DX001 (ip), vehicle: saline
[8] = dose: 200.0 mg/kg/injection, schedule: Q01DX001 (ip), vehicle: saline
[9] = dose: 400.0 mg/kg/injection, schedule: Q01DX001 (ip), vehicle: saline
[10] = dose: 50.0 mg/kg/injection, schedule: Q01DX009 (ip), vehicle: Klucel (hydroxypropylcellulose) (HPC)
[11] = dose: 100.0 mg/kg/injection, schedule: Q04DX003 (ip), vehicle: saline with Tween-80
[12] = dose: 200.0 mg/kg/injection, schedule: Q04DX003 (ip), vehicle: saline with Tween-80
[13] = dose: 400.0 mg/kg/injection, schedule: Q04DX003 (ip), vehicle: saline with Tween-80
[14] = dose: 100.0 mg/kg/injection, schedule: Q01DX001 (ip), vehicle: Klucel (hydroxypropylcellulose) (HPC)
[15] = dose: 200.0 mg/kg/injection, schedule: Q01DX001 (ip), vehicle: Klucel (hydroxypropylcellulose) (HPC)
[16] = dose: 400.0 mg/kg/injection, schedule: Q01DX001 (ip), vehicle: Klucel (hydroxypropylcellulose) (HPC)

Measured: T/C

CCOC(=O)C(C(=O)OCC)N1C(=O)c2ccccc2C1=O
inactive: [1] 100 % of control | [2] 106 % of control and 102 % of control | [3] 102 % of control | [4] 105 % of control and 104 % of control | [5] 102 % of control | [6] 101 % of control and 100 % of control

CCCCNc1nc(N)nc2c1nnn2C1OC(CO)C(O)C1O (stereo not given)
inactive: [7] 107 % of control | [8] 101 % of control | [9] 107 % of control

COC(=O)C(N=Nc1ccc(C)cc1)C(C)=O (stereo not given)
inactive: dose: 25.0 mg/kg/injection, schedule: Q01DX009 (ip), vehicle: Klucel (hydroxypropylcellulose) (HPC) 97 % of control | [10] 94 % of control | [1] 89 % of control

COc1ccc(OC(=O)Nc2cc([N+](=O)[O-])ccc2F)cc1
inactive: [1] 106 % of control | [3] 93 % of control | [5] 93 % of control

O=C1ON(c2ccccc2)C(c2ccccc2)N1c1ccc([N+](=O)[O-])cc1 (stereo not given)
inactive: dose: 50.0 mg/kg/injection, schedule: Q01DX001 (ip), vehicle: saline 106 % of control | [7] 114 % of control | [8] 100 % of control | [9] 112 % of control

Cc1cccnc1N
inactive: dose: 100.0 mg/kg/injection, schedule: Q04DX002 (ip), vehicle: saline with Tween-80 104 % of control | dose: 200.0 mg/kg/injection, schedule: Q04DX002 (ip), vehicle: saline with Tween-80 107 % of control

Cc1ccc(S(=O)(=O)N(C)c2ccc(N)cc2)cc1
inactive: dose: 100.0 mg/kg/injection, schedule: Q01DX001 (ip), vehicle: carboxymethylcellulose (CMC) 102 % of control | dose: 200.0 mg/kg/injection, schedule: Q01DX001 (ip), vehicle: carboxymethylcellulose (CMC) 96 % of control | dose: 400.0 mg/kg/injection, schedule: Q01DX001 (ip), vehicle: carboxymethylcellulose (CMC) 91 % of control

O=C(OC(c1ccccc1)c1ccccc1)C(=O)c1ccccc1
inactive: [11] 92 % of control | [12] 89 % of control | [13] 92 % of control

CC(=O)OCC1CC2C=CC1C2 (stereo not given)
inactive: dose: 222.0 mg/kg/injection, schedule: Q01DX Z (ip), vehicle: saline 98 % of control | dose: 333.0 mg/kg/injection, schedule: Q01DX Z (ip), vehicle: saline 102 % of control | dose: 500.0 mg/kg/injection, schedule: Q01DX Z (ip), vehicle: saline 104 % of control

C[N+](C)(C)C1CCCCCCC1
inactive: dose: 75.0 mg/kg/injection, schedule: Q01DX001 (ip), vehicle: saline 96 % of control | dose: 150.0 mg/kg/injection, schedule: Q01DX001 (ip), vehicle: saline 108 % of control

CC(C)CC(CC(C)C)C(=O)C1C2CCC(O2)C1C(=O)C(CC(C)C)CC(C)C (stereo not given)
inactive: dose: 6.25 mg/kg/injection, schedule: Q04DX002 (ip), vehicle: saline with Tween-80 94 % of control | dose: 12.5 mg/kg/injection, schedule: Q04DX002 (ip), vehicle: saline with Tween-80 94 % of control | dose: 25.0 mg/kg/injection, schedule: Q04DX002 (ip), vehicle: saline with Tween-80 86 % of control

O=P(O)(O)CN(CP(=O)(O)O)CP(=O)(O)O
inactive: [7] 101 % of control | [8] 94 % of control | [9] 89 % of control

O=[N+]([O-])c1ccc(NCc2ccccc2)c2c1no[n+]2[O-]
inactive: dose: 37.5 mg/kg/injection, schedule: Q04DX003 (ip), vehicle: saline with Tween-80 100 % of control | dose: 75.0 mg/kg/injection, schedule: Q04DX003 (ip), vehicle: saline with Tween-80 106 % of control | dose: 150.0 mg/kg/injection, schedule: Q04DX003 (ip), vehicle: saline with Tween-80 100 % of control

COC(=O)C(Cc1c[nH]c2ccccc12)NC(=O)CNC(=O)CNC(=O)OCc1ccccc1 (stereo not drawn) (Cbz-Gly-Gly-[ξW]-OMe)
inactive: [11] 105 % of control | [12] 101 % of control | [13] 100 % of control

COc1ccc(C(=O)/C=C/c2ccc(OC)c(OC)c2)cc1
inactive: [2] 95 % of control | [4] 92 % of control | [6] 100 % of control

NNC(=O)c1cc(N)nc(Cl)c1
inactive: [7] 96 % of control | [8] 96 % of control | [9] 98 % of control

COc1cc([N+](=O)[O-])ccc1NC(=O)C(Br)C(Br)C(=O)O (stereo not given)
inactive: dose: 100.0 mg/kg/injection, schedule: Q01DX009 (ip), vehicle: other 94 % of control

O=C(NCCCl)Nc1ccc(Cl)cc1
inactive: [14] 104 % of control | [15] 102 % of control | [16] 91 % of control

CCNS(=O)(=O)c1cccc(C(=S)OCC)c1
inactive: [14] 105 % of control | [15] 101 % of control | [16] 108 % of control

CC(C)OCCCO
inactive: dose: 100.0 mg/kg/injection, schedule: Q01DX009 (ip), vehicle: saline 87 % of control | dose: 200.0 mg/kg/injection, schedule: Q01DX009 (ip), vehicle: saline 92 % of control | dose: 400.0 mg/kg/injection, schedule: Q01DX009 (ip), vehicle: saline 97 % of control

ClC12C3CCCC1CCCC2CCC3 (stereo not given)
inactive: dose: 100.0 mg/kg/injection, schedule: Q04DX003 (ip), vehicle: other 117 % of control | dose: 200.0 mg/kg/injection, schedule: Q04DX003 (ip), vehicle: other 104 % of control | dose: 400.0 mg/kg/injection, schedule: Q04DX003 (ip), vehicle: other 104 % of control

c1ccc([P+](Cc2nc3ccccc3[nH]2)(c2ccccc2)c2ccccc2)cc1
inactive: dose: 25.0 mg/kg/injection, schedule: Q01DX009 (ip), vehicle: saline 92 % of control | dose: 25.0 mg/kg/injection, schedule: Q04DX003 (ip), vehicle: saline 97 % of control | [10] 102 % of control | dose: 50.0 mg/kg/injection, schedule: Q04DX003 (ip), vehicle: saline 92 % of control | [1] 100 % of control | dose: 100.0 mg/kg/injection, schedule: Q04DX003 (ip), vehicle: saline 94 % of control

CCSP(=S)(SCC)SCC
inactive: dose: 75.0 mg/kg/injection, schedule: Q04DX003 (ip), vehicle: Klucel (hydroxypropylcellulose) (HPC) 94 % of control | dose: 150.0 mg/kg/injection, schedule: Q04DX003 (ip), vehicle: Klucel (hydroxypropylcellulose) (HPC) 92 % of control | dose: 300.0 mg/kg/injection, schedule: Q04DX003 (ip), vehicle: Klucel (hydroxypropylcellulose) (HPC) 120 % of control

Clc1cc(Cl)cc(N=Nc2ccccc2)c1
inactive: [2] 102 % of control | [4] 103 % of control | [6] 103 % of control
